Results on 1 compound are retold here after article PMC7906907, “Targeting STAT3 by a small molecule suppresses pancreatic cancer progression” (Oncogene, 2021).

The subject of this assay is PANC-1 cells. The assay is described as follows: PANC-1 shNC / shSTAT3 xenograft with drug withdrawal. The class given is in vivo, Mice. An excerpt:
To provide further evidence that STAT3 is the direct target of N4, we constructed two STAT3 stable knockdown cell lines by the short hairpin RNA (shRNA) (Supplementary Fig. S10A), and the sequence of shRNA was list in Supplementary Table S3. […] At the meantime, the effect of drug withdrawal on tumor volume and weight was also examined. After 20 days of treatment, all the drug or vehicle were removed and the tumor was allowed to grow for another 12 days. […] Thus, N4 kept the suppression on tumor growth compared to vehicle group during the drug withdrawal period.
Supplementary Figure 10. STAT3 knockdown cells are resistant to N4 in vivo. (A) PANC-1 cells were transfected with shRNA that targeted STAT3 or negative control, and the knockdown efficiency was examined by western blot. (B) Mice bearing the PANC-1 cells within STAT3 stable knockdown (shSTAT3-1#) or negative control (shNC), and administration N4 or vehicle (control) every day by i.p. After 20 days treatment, the N4 and vehicle were removed for another 12 days. Then the mice were sacrificed and the tumor was removed and photographed (n=5 per group). (C) The tumor volume was measured every 3-4 days and the volume was calculated by the formula: length × width2 ×0.52, data are shown as mean ± SD, ****P < 0.0001 and n.s., not significant by one-way ANOVA followed by multiple-comparison tests. (D) After […]

As for `COc1cc2c(cc1C(=O)Nc1cccc3cccnc13)CCC1C(C)(C)C(=O)C(C#N)=C[C@]21C` (some centres unmarked) [N4], the “sensitivity of STAT3 stable knockdown cells to treatment” value (compared with control cells) is “not sensitive”. For the same compound, for the setting “shNC-N4 group, 20 days treatment i.p., then 12 days withdrawal”, the “increase in tumor volume during the drug withdrawal period” value worked out at 249.49 mm^3.
